Reference: the NIST ThermoML archive (doi:10.1016/j.jct.2018.12.021)

Experiment: mn = molality of the nth substance listed, in mol/kg
Conditions: for electrical conductivity / mass density: 100 kPa, Liquid; for electrical conductivity: Direct current cell with electrodes; for mass density: Vibrating tube method; for surface tension liquid-gas: Ring tensiometer

CCCCCCCCCCCC[n+]1cscc1C.[Br-] [N-dodecyl-4-methylthiazolium bromide] + O
Conditions	electrical conductivity [S/m]	mass density [kg/m3]	surface tension liquid-gas [mN/m]
293.15 K, m1 = 0.0015	0.0135	998.25	–
293.15 K, m1 = 0.00206	0.0179	998.29	–
293.15 K, m1 = 0.0025	0.0221	998.31	–
293.15 K, m1 = 0.00402	0.0346	998.4	–
293.15 K, m1 = 0.005	0.0428	998.45	–
293.15 K, m1 = 0.00561	–	998.48	–
293.15 K, m1 = 0.00708	0.0591	998.56	–
293.15 K, m1 = 0.00803	–	998.6	–
293.15 K, m1 = 0.00906	0.0738	998.66	–
293.15 K, m1 = 0.01216	0.0813	998.81	–
293.15 K, m1 = 0.01507	0.0893	998.96	–
293.15 K, m1 = 0.01759	–	999.07	–
293.15 K, m1 = 0.02033	0.106	999.21	–
293.15 K, m1 = 0.02365	–	999.38	–
298.15 K, m1 = 0.0015	0.015	997.07	–
298.15 K, m1 = 0.00206	0.02	997.1	–
298.15 K, m1 = 0.0025	0.0246	997.12	–
298.15 K, m1 = 0.00402	0.0387	997.2	–
298.15 K, m1 = 0.005	0.0479	997.25	–
298.15 K, m1 = 0.00561	–	997.29	–
298.15 K, m1 = 0.00708	0.0662	997.36	–
298.15 K, m1 = 0.00803	–	997.42	–
298.15 K, m1 = 0.00906	0.0822	997.47	–
298.15 K, m1 = 0.01216	0.0921	997.62	–
298.15 K, m1 = 0.01507	0.101	997.75	–
298.15 K, m1 = 0.01759	–	997.86	–
298.15 K, m1 = 0.02033	0.12	998	–
298.15 K, m1 = 0.02365	–	998.16	–
303.15 K, m1 = 0.0015	0.0166	995.66	47.78
303.15 K, m1 = 0.00206	0.0222	995.68	43.39
303.15 K, m1 = 0.0025	0.0272	995.7	41.79
303.15 K, m1 = 0.00402	0.0428	995.77	39.49
303.15 K, m1 = 0.005	0.0529	995.82	35.96
303.15 K, m1 = 0.00561	–	995.86	–
303.15 K, m1 = 0.00708	0.0733	995.93	30.49
303.15 K, m1 = 0.00803	–	995.98	–
303.15 K, m1 = 0.00906	0.0917	996.03	30.89
303.15 K, m1 = 0.01216	0.103	996.17	31.36
303.15 K, m1 = 0.01507	0.114	996.3	30.86
303.15 K, m1 = 0.01759	–	996.4	–
303.15 K, m1 = 0.02033	0.137	996.53	30.91
303.15 K, m1 = 0.02365	–	996.65	–
308.15 K, m1 = 0.0015	0.0184	994.04	–
308.15 K, m1 = 0.00206	0.0244	994.06	–
308.15 K, m1 = 0.0025	0.03	994.08	–
308.15 K, m1 = 0.00402	0.047	994.13	–
308.15 K, m1 = 0.005	0.0581	994.18	–
308.15 K, m1 = 0.00561	–	994.21	–
308.15 K, m1 = 0.00708	0.0803	994.28	–
308.15 K, m1 = 0.00803	–	994.33	–
308.15 K, m1 = 0.00906	0.1	994.37	–
308.15 K, m1 = 0.01216	0.114	994.49	–
308.15 K, m1 = 0.01507	0.127	994.61	–
308.15 K, m1 = 0.01759	–	994.69	–
308.15 K, m1 = 0.02033	0.15	994.82	–
308.15 K, m1 = 0.02365	–	994.89	–
313.15 K, m1 = 0.0015	0.02	992.22	–
313.15 K, m1 = 0.00206	0.0267	992.23	–
313.15 K, m1 = 0.0025	0.0329	992.24	–
313.15 K, m1 = 0.00402	0.0515	992.28	–
313.15 K, m1 = 0.005	0.0634	992.31	–
313.15 K, m1 = 0.00561	–	992.34	–
313.15 K, m1 = 0.00708	0.0877	992.39	–
313.15 K, m1 = 0.00803	–	992.43	–
313.15 K, m1 = 0.00906	0.11	992.47	–
313.15 K, m1 = 0.01216	0.125	992.61	–
313.15 K, m1 = 0.01507	0.138	992.72	–
313.15 K, m1 = 0.01759	–	992.81	–
313.15 K, m1 = 0.02033	0.162	992.9	–
313.15 K, m1 = 0.02365	–	993	–
